Data as given in patent US12649712B2, “Indene compounds, pharmaceutical compositions thereof, and their therapeutic applications” (NucMito Pharmaceuticals Co. Ltd., priority 2020, dated 2026).

What was measured:
[1] = system: CCl4-induced liver fibrosis in C57BL/6 mice; experiment: Antifibrotic activity in CCl4-induced liver fibrosis, Sirius red staining of liver samples; format: in vivo; conditions: C57/BL6 mice, oral once daily for 2 weeks; malotilate 60 mg/kg, A11 and B9 50 mg/kg
Experimental: CCl4-induced liver fibrosis was described previously. Henderson et al., Proc. Nat'l. Acad. Sci. U.S.A. 2006, 103, 5060-5; Henderson et al., Nat. Med. 2013, 19, 1617-24. Briefly, eight-week-old C57BL/6 mice were randomly divided into two groups: a control group and a CCl4 administered group. Liver fibrosis was induced by intraperitoneal administration of 25% CCl4 at 0.5 mL/kg body weight (diluted in corn oil) twice weekly for 6 weeks. Dosing was started during the last 2 weeks of CCl4 administration. Malotilate (Mal) as a reference and compounds A11, A23, and B9 were each freshly prepared by dissolving in PEG 400 and orally administered in a dosing volume of 10 mL/kg. The mice were stratified (n=6-8 per group) based on their body weights and dosed once daily for 2 weeks with a vehicle, malotilate (60 mg/kg), compound A11 (50 mg/kg), compound A23 (50 mg/kg), or compound B9 (50 mg/kg). Their body weights were monitored daily during the intervention period. At the terminal of treatment, the mice were sacrificed and their liver samples were processed as below.
The mice liver samples were all taken at the same position of each large lobe, and then post-fixed in a 10% buffered formaldehyde for 48 h. The fixed livers were embedded in paraffin for microtome slicing into 5-μm-thick sections. The tissue sections were mounted onto MS-coated glass slides, deparaffinized, and stained with picric acid-Sirius red. Stained sections were photographed using a microscope with a digital camera. Images were taken at a full resolution with a single image dimension set at 1,360×1,024 pixels.
Total RNA was extracted from the liver using an MOLPURE® TRIEASY™ Plus Total RNA Kit (Yeasen, Shanghai, China). Total RNA (5 μg) was reverse-transcribed using 1st strand cDNA Synthesis SuperMix for qPCR (gDNA digester plus) Kit (Yeasen, Shanghai, China). […]

[2] = system: alpha-smooth muscle actin (α-SMA); experiment: Inhibition of TGF-β induced expression of alpha-smooth muscle actin (α-SMA) in CFSC cells, western blot; format: cell-based; conditions: compound at 10 μM, TGF-β (10 ng/mL), 24 hours, decrease in band intensity vs TGF-β only
Summary of the method: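 Cells at 60–70% confluence in serum-free DMEM received compound at 10 μM plus TGF-β (10 ng/mL) for 24 h at 37 °C. NP-40 lysates were run on western blot for α-SMA and β-actin, with ECL bands quantified. % inhibition = decrease in band intensity versus TGF-β alone.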

CC1=C(CC(=O)O)c2cc(F)ccc2/C1=C\c1ccc(Oc2ccc(F)cc2)cc1 [Compound A11, 2-[(1Z)-5-Fluoro-1-{[4-(4-fluorophenoxy)phenyl]methylidene}-2-methyl-1H-inden-3-yl]acetic acid]
Sirius red pathological staining of liver samples: effect on fibrosis induced by CCl4 [1]: reversed the fibrosis induced by CCl4 | inhibition at 10 µM [2]: 80 to 90%

CC1=C(CC(=O)O)c2cc(F)ccc2/C1=C\c1ccc(C(C)C)cc1 [Compound B9, (Z)-2-(5-fluoro-2-methyl-1-(4-isopropylbenzylidene)-1H-inden-3-yl)acetic acid]
Sirius red pathological staining of liver samples: effect on fibrosis induced by CCl4 [1]: reversed the fibrosis induced by CCl4 | inhibition at 10 µM [2]: > 90%

CC1=C(CC(=O)O)c2cc(F)ccc2/C1=C\c1cccc(Oc2cccc(C(F)(F)F)c2)c1 [Compound D27, 2-[(1Z)-5-Fluoro-2-methyl-1-({3-[3-trifluoromethylphenoxy]phenyl}-methylidene)-1H-inden-3-yl]acetic acid]
inhibition at 10 µM [2]: > 90%

CC1=C(CC(=O)O)c2cc(F)ccc2/C1=C/c1ccc(Oc2ccc(F)c(F)c2)cc1 [Compound E1, 2-[(1E)-5-Fluoro-2-methyl-1-({4-[3,4-difluorophenoxy]phenyl}methylidene)-1H-inden-3-yl]acetic acid]
inhibition at 10 µM [2]: > 90%

CC1=C(CC(=O)O)c2cc(F)ccc2/C1=C/c1ccc(Oc2ccc(F)cc2)cc1 [Compound E2, 2-[(1E)-5-Fluoro-2-methyl-1-({4-[4-fluorophenoxy]phenyl}methylidene)-1H-inden-3-yl]acetic acid]
inhibition at 10 µM [2]: > 90%

CC1=C(CC(=O)O)c2cc(F)ccc2/C1=C/c1ccc(Oc2ccccc2)cc1 [Compound E3, 2-[(1E)-5-Fluoro-2-methyl-1-[(4-phenoxyphenyl)methylidene]-1H-inden-3-yl]acetic acid]
inhibition at 10 µM [2]: > 90%

CC1=C(CC(=O)O)c2cc(F)cc(F)c2/C1=C/c1ccc(Oc2ccc(F)cc2)cc1 [Compound E4, 2-[(1E)-5,7-Difluoro-2-methyl-1-({4-[4-fluorophenoxy]phenyl}methylidene)-1H-inden-3-yl]acetic acid]
inhibition at 10 µM [2]: > 90%

CC1=C(CC(=O)O)c2cc(F)cc(F)c2/C1=C/c1cccc(Oc2ccccc2)c1 [Compound E6, 2-[(1E)-5,7-Difluoro-1-(3-(phenoxy)benzylidene)-2-methyl-1H-inden-3-yl]-acetic acid]
inhibition at 10 µM [2]: > 90%

CC(C)OC(=O)C(C(=O)OC(C)C)=C1SC=CS1 [Mal, malotilate, reference compound]
Sirius red pathological staining of liver samples: effect on fibrosis induced by CCl4 [1]: reversed the fibrosis induced by CCl4
